# Results: ChEMBL document CHEMBL1201862, “PubChem BioAssay data set” (2004)
#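 A five-concentration, 48-hour dose response in 96-well plates underlies each endpoint, interpolated linearly between surrounding concentrations. Here, GI50 denotes the concentration required for 50% inhibition of growth.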 Active and inactive are the calls of the source. No stated cut-off is given here; in the data, active = GI50 up to about 1.1 µM and inactive = higher.
# Assays:
# Test in all cases: NCI anticancer screen, dose series, 48 h
# TK-10 = system: TK-10
# SK-MEL-5 = system: SK-MEL-5
# HT-29 = system: HT-29
# MDA-MB-435 = system: MDA-MB-435
# HCC 2998 = system: HCC 2998
# CCRF-CEM = system: CCRF-CEM
# SW-620 = system: SW-620
# EKVX = system: EKVX
# SNB-75 = system: SNB-75
# SR = system: SR
# RPMI-8226 = system: RPMI-8226
# HOP-62 = system: HOP-62
# A498 = system: A498
# UO-31 = system: UO-31
# HCT-116 = system: HCT-116
# M14 = system: M14
# SK-MEL-2 = system: SK-MEL-2
# Hs-578T = system: Hs-578T
# NCI/ADR-RES = system: NCI/ADR-RES
# UACC-257 = system: UACC-257
# CAKI-1 = system: CAKI-1
# OVCAR-8 = system: OVCAR-8
# HOP-92 = system: HOP-92
# A549 = system: A549
# NCI-H226 = system: NCI-H226
# 786-0 = system: 786-0
# RXF 393 = system: RXF 393
# COLO 205 = system: COLO 205
# LOX IMVI = system: LOX IMVI
# U-251 = system: U-251
# HL-60 = system: HL-60
# SF-539 = system: SF-539
# IGROV-1 = system: IGROV-1
# ACHN = system: ACHN
# KM12 = system: KM12
# Malme-3M = system: Malme-3M
# BT-549 = system: BT-549
# PC-3 = system: PC-3
# SNB-19 = system: SNB-19
# OVCAR-4 = system: OVCAR-4
# SF-295 = system: SF-295
# MDA-N = system: MDA-N
# OVCAR-3 = system: OVCAR-3
# SK-OV-3 = system: SK-OV-3
# DU-145 = system: DU-145
# SF-268 = system: SF-268
# SK-MEL-28 = system: SK-MEL-28
# MCF7 = system: MCF7
# NCI-H23 = system: NCI-H23
# MOLT-4 = system: MOLT-4
# UACC-62 = system: UACC-62
# NCI-H522 = system: NCI-H522
# OVCAR-5 = system: OVCAR-5
# T47D = system: T47D
# NCI-H460 = system: NCI-H460
# SN12C = system: SN12C
# MDA-MB-231 = system: MDA-MB-231
# K562 = system: K562
# HCT-15 = system: HCT-15
structure (smiles),measurement,setting,value
Cc1ccc(OCC2OC(n3cnc4nc(Cl)nc(Cl)c43)CC2Oc2ccc(C)cc2)cc1 (configuration not stated),GI50,TK-10,13.8 µM (inactive)
same,GI50,SK-MEL-5,16.3 µM (inactive)
same,GI50,HT-29,5.85 µM (inactive)
same,GI50,MDA-MB-435,5.3 µM (inactive)
same,GI50,HCC 2998,3.39 µM (inactive)
same,GI50,CCRF-CEM,2.99 µM (inactive)
same,GI50,SW-620,3.76 µM (inactive)
same,GI50,EKVX,11.2 µM (inactive)
same,GI50,SNB-75,14.7 µM (inactive)
same,GI50,SR,1.78 µM (inactive)
same,GI50,RPMI-8226,2.62 µM (inactive)
same,GI50,HOP-62,16.3 µM (inactive)
same,GI50,A498,22.4 µM (inactive)
same,GI50,UO-31,10.1 µM (inactive)
same,GI50,HCT-116,4.55 µM (inactive)
same,GI50,M14,6.35 µM (inactive)
same,GI50,SK-MEL-2,4.98 µM (inactive)
same,GI50,Hs-578T,11.9 µM (inactive)
same,GI50,NCI/ADR-RES,15.3 µM (inactive)
same,GI50,UACC-257,12.9 µM (inactive)
same,GI50,CAKI-1,4.75 µM (inactive)
same,GI50,OVCAR-8,13.1 µM (inactive)
same,GI50,HOP-92,2.69 µM (inactive)
same,GI50,A549,27.3 µM (inactive)
same,GI50,NCI-H226,12 µM (inactive)
same,GI50,786-0,5.25 µM (inactive)
same,GI50,RXF 393,3.85 µM (inactive)
same,GI50,COLO 205,9.25 µM (inactive)
same,GI50,LOX IMVI,2 µM (inactive)
same,GI50,U-251,11.1 µM (inactive)
same,GI50,HL-60,0.402 µM (active)
same,GI50,SF-539,5.94 µM (inactive)
same,GI50,IGROV-1,5.36 µM (inactive)
same,GI50,ACHN,3.05 µM (inactive)
same,GI50,KM12,8.73 µM (inactive)
same,GI50,Malme-3M,13.6 µM (inactive)
same,GI50,BT-549,9.51 µM (inactive)
same,GI50,PC-3,11.6 µM (inactive)
same,GI50,SNB-19,15.7 µM (inactive)
same,GI50,OVCAR-4,15.7 µM (inactive)
same,GI50,SF-295,16.4 µM (inactive)
same,GI50,MDA-N,3.74 µM (inactive)
same,GI50,OVCAR-3,6.38 µM (inactive)
same,GI50,SK-OV-3,30.3 µM (inactive)
same,GI50,DU-145,12.9 µM (inactive)
same,GI50,SF-268,7.01 µM (inactive)
same,GI50,SK-MEL-28,3.65 µM (inactive)
same,GI50,MCF7,5.61 µM (inactive)
same,GI50,NCI-H23,7.71 µM (inactive)
same,GI50,MOLT-4,2.01 µM (inactive)
same,GI50,UACC-62,6.04 µM (inactive)
same,GI50,NCI-H522,1.84 µM (inactive)
same,GI50,OVCAR-5,17.2 µM (inactive)
same,GI50,T47D,6.19 µM (inactive)
same,GI50,NCI-H460,6.55 µM (inactive)
same,GI50,SN12C,7.31 µM (inactive)
same,GI50,MDA-MB-231,2.51 µM (inactive)
same,GI50,K562,1.95 µM (inactive)
same,GI50,HCT-15,2.36 µM
O=[N+]([O-])c1cc(F)ccc1Sc1ccccc1,GI50,TK-10,> 10 µM (inactive)
same,GI50,SK-MEL-5,> 10 µM (inactive)
same,GI50,HT-29,> 10 µM (inactive)
same,GI50,MDA-MB-435,> 10 µM (inactive)
same,GI50,HCC 2998,> 10 µM (inactive)
same,GI50,CCRF-CEM,> 10 µM (inactive)
same,GI50,SW-620,> 10 µM (inactive)
same,GI50,EKVX,> 10 µM (inactive)
same,GI50,SNB-75,> 10 µM (inactive)
same,GI50,SR,> 10 µM (inactive)
same,GI50,RPMI-8226,> 10 µM (inactive)
same,GI50,HOP-62,> 10 µM (inactive)
same,GI50,A498,> 10 µM (inactive)
same,GI50,HCT-116,> 10 µM (inactive)
same,GI50,M14,> 10 µM (inactive)
same,GI50,SK-MEL-2,> 10 µM (inactive)
same,GI50,Hs-578T,> 10 µM (inactive)
same,GI50,NCI/ADR-RES,> 10 µM (inactive)
same,GI50,UACC-257,> 10 µM (inactive)
same,GI50,CAKI-1,> 10 µM (inactive)
same,GI50,OVCAR-8,> 10 µM (inactive)
same,GI50,HOP-92,> 10 µM (inactive)
same,GI50,A549,> 10 µM (inactive)
same,GI50,NCI-H226,> 10 µM (inactive)
same,GI50,786-0,> 10 µM (inactive)
same,GI50,RXF 393,> 10 µM (inactive)
same,GI50,COLO 205,> 10 µM (inactive)
same,GI50,LOX IMVI,> 10 µM (inactive)
same,GI50,U-251,> 10 µM (inactive)
same,GI50,HL-60,> 10 µM (inactive)
same,GI50,SF-539,> 10 µM (inactive)
same,GI50,IGROV-1,> 10 µM (inactive)
same,GI50,ACHN,> 10 µM (inactive)
same,GI50,KM12,> 10 µM (inactive)
same,GI50,Malme-3M,> 10 µM (inactive)
same,GI50,BT-549,> 10 µM (inactive)
same,GI50,PC-3,> 10 µM (inactive)
same,GI50,SNB-19,> 10 µM (inactive)
same,GI50,OVCAR-4,> 10 µM (inactive)
same,GI50,SF-295,> 10 µM (inactive)
same,GI50,MDA-N,> 10 µM (inactive)
same,GI50,OVCAR-3,> 10 µM (inactive)
same,GI50,SK-OV-3,> 10 µM (inactive)
same,GI50,DU-145,> 10 µM (inactive)
same,GI50,SF-268,> 10 µM (inactive)
same,GI50,SK-MEL-28,> 10 µM (inactive)
same,GI50,MCF7,> 10 µM (inactive)
same,GI50,NCI-H23,> 10 µM (inactive)
same,GI50,MOLT-4,> 10 µM (inactive)
same,GI50,UACC-62,> 10 µM (inactive)
same,GI50,NCI-H522,> 10 µM (inactive)
same,GI50,OVCAR-5,> 10 µM (inactive)
same,GI50,T47D,> 10 µM (inactive)
same,GI50,NCI-H460,> 10 µM (inactive)
same,GI50,SN12C,> 10 µM (inactive)
same,GI50,MDA-MB-231,> 10 µM (inactive)
same,GI50,K562,> 10 µM (inactive)
same,GI50,HCT-15,> 10 µM
